Read-outs that look alike come from different tables or passages of the source. Marks after values point to notes of the source that are not given here.
Key:
[1] = tested on: 4T1 cells; assay: Antitumor effect in 4T1 mouse mammary carcinoma xenograft model; assay type: in vivo, BALB/c mice; conditions: for Tumor inhibition rate (%) / Tumor weight: 40 μmol/kg/day, 4T1
Protocol: 4T1 cells were cultured and expanded in vitro. […] A 100 μL aliquot of this suspension was injected subcutaneously into the left forelimb axilla of female BALB/c mice. […] Daily oral administration was performed for 3 weeks. During the treatment period, mouse body weight and tumor diameter were measured daily. At the end of the experiment, mice were euthanized by cervical dislocation, and tumors were removed for weighing. Tumor volume (TV) was calculated using the formula: TV=½×a×b^2, where a represents the longest diameter of the tumor and b represents the shortest diameter.

[2] = tested on: H22 cells; assay: Antitumor effect in H22 mouse hepatocellular carcinoma subcutaneous xenograft model; assay type: in vivo, BALB/c mice; conditions: for Tumor Suppression Rate (%) / Tumor weight: 40 μmol/kg/day, H22 xenograft
[3] = tested on: CT26 cells; assay: Antitumor effect in CT26 colon cancer mouse subcutaneous model; assay type: in vivo, BALB/c mice; conditions: for Tumor inhibition rate (%) / Tumor weight: 80 μmol/kg/day, CT26
[4] = tested on: MDSCs; assay: Proportion of MDSCs in tumor and spleen of H22 xenograft mice (flow cytometry); assay type: in vivo, BALB/c mice; conditions: for Spleen MDSCs (%) / Tumor-associated MDSCs (%): 40 μmol/kg/day, oral, 2 weeks, flow cytometry
Protocol: Once all tumors were dissected, nail-sized tumor pieces were transferred to 1.5 mL Eppendorf tubes and minced with scissors. Transfer the minced tumor tissue suspension to a 15 mL centrifuge tube containing 3-5 mL of digestive enzymes (Collagenase IV 1 mg/mL, Hyaluronidase 1 mg/mL, DNase 120 U/mL). Incubate at 200 rpm and 37° C. for 1 hour. After digestion, pass the mixture through a 200-mesh sieve to obtain the tumor cell suspension. Centrifuge the resulting tumor suspension at 1600 rpm for 5 min, aspirate the supernatant, resuspend cells in 1 mL of 1×PBS per tube. Transfer the cell suspension to a 1.5 mL Eppendorf tube, centrifuge at 1600 rpm for 5 min, remove the supernatant, resuspend cells in 100 μL of 1×PBS per tube, add 1 μL of dead/live dye to each tube, mix thoroughly, and incubate at room temperature in the dark for 15 min. […] Position the spleen on a 200-mesh cell strainer. Gently press the spleen using a 10 mL syringe needle. […] Transfer the washed splenocyte suspension into a 15 mL centrifuge tube. Centrifuge at 1600 rpm for 5 min to collect cells. Wash once with 1×PBS. Add 3 mL red blood cell lysis buffer (diluted with ddH2O) to each tube and incubate for 5 min. After lysis, add 10 mL 1×PBS to each tube to terminate lysis. Centrifuge at 1600 rpm for 5 min. Add 1 mL 1×PBS to each 15 mL centrifuge tube, transfer to 1.5 mL EP tubes, and centrifuge at 1600 rpm for 5 min. Add 1 mL 1×PBS to each tube containing stained tumor cells and lysed spleen cells for one wash, centrifuge at 1600 rpm for 5 min, and remove the supernatant. Resuspend tumor cells and spleen cells separately in 100 μL 1×PBS. Add 1 μL FcX™ antibody to each tube and incubate at room temperature in the dark for 10 min. After incubation, sequentially add 1 μL each of CD45, CD11b, Gr1 antibodies. Incubate at 4° C. in the dark for 30 min. After incubation, wash once with 1×PBS, discard the supernatant, resuspend cells in 300 μL 1×PBS, filter the membrane into a flow cytometry tube, and proceed to instrument analysis.

[5] = tested on: inflammatory cytokines (TNF, IL-6, IL-1) in renal tissue; assay: UUO chronic kidney injury, renal inflammatory factor mRNA; assay type: in vivo, C57BL/6 mice; parameters: unit not given here; conditions: UUO chronic model
From the text: Chronic Kidney Injury: Mice were randomly divided into five groups. […] Except for the sham-operated mice in the normal group (where only the left ureter was exposed without further manipulation), all other mice underwent unilateral ureteral ligation to establish a chronic kidney injury model as follows: The abdominal skin was disinfected with iodine solution followed by alcohol. An incision was made, and the abdominal layers were dissected sequentially. The left ureter was fully exposed and dissected. A double ligation was performed at the bladder-proximal end of the left ureter using absorbable suture material, followed by closure.
(§1) The blood was allowed to stand at room temperature for 2 hours, then centrifuged at 3000 rpm for 20 minutes. Serum was aspirated, aliquoted, and stored at −70° C. for future use. Following blood collection, euthanize mice by cervical dislocation. Perform laparotomy to remove kidneys, dissect out perirenal fat and capsules. […] Paraffin-embedded specimens undergo HE staining; remaining tissue is stored at −70° C. for future use.

[6] = Conversion (release) of prodrug salts to parent compound in HEPES buffer pH 7.4; assay type: in vitro ADME; conditions: for Release rate (conversion to Compound 1): HEPES pH 7.4, 37 °C; for degraded at 1 h / degraded at 2 h / degraded at 4 h / degraded at 8 h / degraded at 12 h: hepes buffer, pH 7.4, HEPES pH 7.4, 37 °C
Summary of the method: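 Salt dissolved in water, mixed 1:1 with HEPES solution pH 7.4 (NaCl, KCl, Na2HPO4, glucose) and held at 37° C. At 1, 2, 4, 8 and 12 h, samples were methanol-quenched, centrifuged and analysed by reversed-phase HPLC at 210 nm, with peak areas recorded for conversion to parent compound.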

[7] = tested on: renal injury markers (Ngal, Havcr1) in kidney tissue; assay: Folic acid-induced acute kidney injury, renal injury marker mRNA; assay type: in vivo, C57BL/6 mice; parameters: scale not given here; conditions: folic acid acute model
Protocol: Except for the normal group, all other mice were administered folic acid (250 mg/kg) dissolved in 0.9% NaHCO3 solution via intraperitoneal injection to establish an acute kidney injury model.
as §1

[8] = compared with solvent control, result in words

SMILES	Tumor inhibition rate (%) ([1]; oral, 3 weeks)	Tumor weight ([1]; oral, 3 weeks) [g]	antitumor effect, 4T1 ([1]; oral, 3 weeks, result in words)	Il1 mRNA expression, kidney ([5]; 1 mg/kg oral, 1 mg/kg)	Il6 mRNA expression, kidney ([5]; 1 mg/kg oral, 1 mg/kg)	Tnf mRNA expression, kidney ([5]; 1 mg/kg oral, 1 mg/kg)	Tumor Suppression Rate (%) ([2]; oral, 2 weeks)	Tumor weight ([2]; oral, 2 weeks) [g]	tumor-inhibiting effect, H22 ([2]; oral, 2 weeks, result in words)	Tumor inhibition rate (%) ([3]; oral, 3 weeks) [%*]	Tumor weight ([3]; oral, 3 weeks) [g]	tumor-inhibiting effect, CT26 ([3]; oral, 3 weeks, result in words)	Release rate (conversion to Compound 1) ([6]; 1 h, 60 min) [%]	Release rate (conversion to Compound 1) ([6]; 2 h, 120 min) [%]	Release rate (conversion to Compound 1) ([6]; 4 h, 240 min) [%]	Release rate (conversion to Compound 1) ([6]; 8 h, 480 min) [%]	Release rate (conversion to Compound 1) ([6]; 12 h, 720 min) [%]	Spleen MDSCs (%) [4] [%]	Tumor-associated MDSCs (%) [4] [%]	proportion of MDSCs in tumor tissues and spleens [4, 8]	further results
C=C1C(=O)O[C@@H]2[C@H]3C(C)=CC[C@@]34O[C@@]4(C)CC[C@@H]12 [Arg, Arglabin, reference compound]																					antitumor effect, 4T1 ([1]; mouse, in vivo, po): no significant antitumor effects; tumor-inhibiting effect, H22 ([2]; mouse, in vivo, po): tumor-inhibiting effects; tumor-inhibiting effect, CT26 ([3]; mouse, in vivo, po): tumor-inhibiting effects; proportion of MDSCs in tumor tissues and spleens ([4]; mouse, in vivo): significantly reduced
CN(C)C[C@@H]1C(=O)O[C@H]2[C@H]1CC[C@@]1(C)C[C@]13CC[C@@](C)(O)[C@H]23 [Compound 20]	−15.24	2.09 ± 0.60	no significant antitumor effects	2.77 ± 0.40	3.69 ± 1.26	5.09 ± 0.66	70.86	4.88 ± 0.87	tumor-inhibiting effects	43.36	4.62 ± 1.29	tumor-inhibiting effects	6.2	13.8	21.7	44.3	59.1	23.10 ± 5.35	7.86 ± 6.19	significantly reduced	Havcr1 mRNA expression, kidney ([7]; 1 mg/kg oral, 1 mg/kg): 62.86 ± 12.20; Ngal mRNA expression, kidney ([7]; 1 mg/kg oral, 1 mg/kg): 13.05 ± 1.82
CN(C)C[C@@H]1C(=O)O[C@H]2[C@H]1CC[C@@]1(C)C[C@]13CC[C@@](C)(O)[C@H]23 [Compound 21]				3.55 ± 0.50	5.61 ± 2.10	7.53 ± 0.68							3.3	10.2	18.1	38.9	51.9				Il1 mRNA expression, kidney ([5]; 0.1 mg/kg oral): 5.32 ± 0.56; Il6 mRNA expression, kidney ([5]; 0.1 mg/kg oral): 14.31 ± 6.01; Tnf mRNA expression, kidney ([5]; 0.1 mg/kg oral): 7.10 ± 1.93; Havcr1 mRNA expression, kidney ([7]; 0.1 mg/kg oral): 170.08 ± 33.10; Ngal mRNA expression, kidney ([7]; 0.1 mg/kg oral): 25.75 ± 2.80; Havcr1 mRNA expression, kidney ([7]; 1 mg/kg oral, 1 mg/kg): 83.11 ± 16.85; Ngal mRNA expression, kidney ([7]; 1 mg/kg oral, 1 mg/kg): 13.08 ± 2.41
CC1=C2CC[C@@](C)(OC(=O)N3CCCCC3)[C@@H]2[C@H]2OC(=O)[C@@H](CN(C)C)[C@@H]2CC1 [Compound 102]	−20.37	2.18 ± 1.34	no significant antitumor effects				27.99	6.13 ± 1.48	tumor-inhibiting effects									30.37 ± 9.84	32.11 ± 6.33	significantly reduced	degraded at 1 h ([6]; 1 h, read-out: Release rate (conversion to Compound 83)): 6.8%; degraded at 2 h ([6]; 2 h, read-out: Release rate (conversion to Compound 83)): 14.6%; degraded at 4 h ([6]; 4 h, read-out: Release rate (conversion to Compound 83)): 24.8%; degraded at 8 h ([6]; 8 h, read-out: Release rate (conversion to Compound 83)): 43%; degraded at 12 h ([6]; 12 h, read-out: Release rate (conversion to Compound 83)): 51.8%
CC1=C2CC[C@@](C)(OC(=O)N3CCCC3)[C@@H]2[C@H]2OC(=O)[C@@H](CN3CCCC3)[C@@H]2CC1 [Compound 103]			no significant antitumor effects				60.34	5.02 ± 0.48	tumor-inhibiting effects	39.72	4.86 ± 0.72	tumor-inhibiting effects						24.33 ± 5.02	10.62 ± 6.50	significantly reduced	Il1 mRNA expression, kidney ([5]; 0.1 mg/kg oral): 5.45 ± 2.35; Il6 mRNA expression, kidney ([5]; 0.1 mg/kg oral): 52.89 ± 40.54; Tnf mRNA expression, kidney ([5]; 0.1 mg/kg oral): 4.21 ± 0.82; Il1 mRNA expression, kidney ([5]; 1 mg/kg oral): 3.49 ± 0.93; Il6 mRNA expression, kidney ([5]; 1 mg/kg oral): 32.19 ± 25.90; Tnf mRNA expression, kidney ([5]; 1 mg/kg oral): 3.80 ± 0.40; Il1 mRNA expression, kidney ([5]; 10 mg/kg oral): 3.19 ± 0.85; Il6 mRNA expression, kidney ([5]; 10 mg/kg oral): 31.08 ± 18.80; Tnf mRNA expression, kidney ([5]; 10 mg/kg oral): 3.06 ± 0.47; degraded at 1 h ([6]; 1 h, read-out: Release rate (conversion to Compound 82)): 6.4%; degraded at 2 h ([6]; 2 h, read-out: Release rate (conversion to Compound 82)): 14.2%; degraded at 4 h ([6]; 4 h, read-out: Release rate (conversion to Compound 82)): 26%; degraded at 8 h ([6]; 8 h, read-out: Release rate (conversion to Compound 82)): 45.6%; degraded at 12 h ([6]; 12 h, read-out: Release rate (conversion to Compound 82)): 52.6%; Havcr1 mRNA expression, kidney ([7]; 0.1 mg/kg oral): 452.14 ± 212.69; Ngal mRNA expression, kidney ([7]; 0.1 mg/kg oral): 148.49 ± 116.61; Havcr1 mRNA expression, kidney ([7]; 1 mg/kg oral): 415.10 ± 120.96; Ngal mRNA expression, kidney ([7]; 1 mg/kg oral): 85.57 ± 27.78; Havcr1 mRNA expression, kidney ([7]; 10 mg/kg oral): 331.69 ± 98.67; Ngal mRNA expression, kidney ([7]; 10 mg/kg oral): 69.68 ± 25.32

Source: patent publication US20260315434A1, “USE OF GUAIACOL SESQUITERPENE LACTONE DERIVATIVES” (NANJING UNIVERSITY OF CHINESE MEDICINE, priority 2023, published 2026)
